Reference: patent US20190183100A1, “ANIMAL MODELS FOR POLYCYSTIC KIDNEY DISEASE” (Recombinetics, Inc., priority 2017, published 2019)

Assays:
PKD1^FLEX-CreER2 = test: Tamoxifen activation of PKD1^FLEX-CreER2 cassette in LLC-PK1 cells in vitro; type: cell-based, pig; conditions: after tamoxifen treatment, LLC-PK1 targeted cells, expected
Protocol: Testing of PKD1^FLEX-CreER2 is conducted using the immortalized pig kidney cell line, LLC-PK1. Prior to conducting studies with the cassette integrated into cells, the efficacy of Cre recombination is optimized in transient transfections +/− tamoxifen and measure recombination by qPCR.
In vitro testing in the LLC-PK1, PKD1^FLEX-CreER2 targeted cells: The model cells developed above are treated in triplicate with 3 dosages of tamoxifen, and compared to non-treated cells. Percent recombination of the PKD1^FLEX-CreER2 cassette is analyzed visually for the loss of EGFP using FACS and molecularly by quantitative PCR for molecular quantification of recombination. Splicing of the PKD1^FLEX-CreER2 cassette is analyzed before and after recombination by RT-PCR from exon 14 to exon 16, followed by Sanger sequencing and qRT-PCR using primers spanning exon junctions of E14-15 and E15-16 respectively. Finally, induced and non-induced populations are compared at the protein level by western blotting.

porcine PKHD1 [1] = test: Cytoplasmic injection of parthenogenetic pig embryos, single blastocyst RFLP assay and sequencing; type: cell-based; conditions: for RFLP In Embryos: pig embryos, with HDR template; for NHEJ n (%): R3229Q introgression
Protocol: The best performing combinations of TALENs and CRISPRs identified above, are evaluated in vitro by injection of in vitro matured (IVM) parthenogenetic pig embryos (FIG. 9C). […] In a small pilot study targeting porcine PDX1, 80% of alleles injected with a TALEN dosage of 40 ng/μl were able to be mutated, with nearly half of those directed to a particular edit by a homology template (FIG. 11B). FIG. 11A illustrates the steps required in production of in vitro matured pig embryos for microinjection. FIG. 11B illustrates the difference in percent success which using different concentrations of editing reagents for the PDX1 gene. A similar dosage escalation study is used to optimize for T36M introgression that balances survival of embryos in vitro with editing efficiency.
HDR efficiency was inversely associated with Cas9 dosage (50 vs 80% HDR) from highest to lowest concentration (Table 12 and FIG. 13A) likely a result of hyperactive cutting in the high concentration group. The fidelity of HDR events was further confirmed by sequencing (FIG. 13B) which confirms that the wild type triplet “ACA” coding, for threonine has been converted to “ATG” coding for methionine (FIG. 9A) using the template HDR sequence. Overall, condition C3, 25 ng/ul of Cas9, 12.5 ng/ul of gRNA and 50 ng/μl of ssHDR, was optimal for both blastocyst formation rate and HDR activity. If this site proves problematic, alternative missense mutations commonly observed in more than one family of ARPKD patients, such as I3553T, I222V, P805L or R3229Q are introgressed.
By the same process as Example 8, R3229Q was engineered into the PKHD1 gene. R3229Q is the equivalent mutation to R3240Q in humans (FIG. 16A), which in a homozygous state causes moderate ARPKD. Also, as noted previously, the annotation of PKHD1 has changed since initial contigs placed R3240Q in exon 58 versus exon 65. Also, R3240Q in humans, maps to different residue numbers in pigs based on transcript selected. […] Injections into parthenogenetic embryos were performed as before, with two conditions using a ssODN as the homology template ssPKHD1 65.1 3240 R to Q (Table 10); C1 (100/50/50) (Cas9 mRNA/gRNA65.1/homology template, all ng/μl) and C3 (25/12.5/50) (Cas9 mRNA/gRNA65.1/homology template, all ng/μl) (Table 9). […] HDR was also prevalent in the C3 condition (75%) whereas total mutation rate (indels+HDR alleles) was 100 and 95% for C1 and C3 respectively. […] Blastocyst 3.19 is homozygous for R3229Q while 3.12 has one HDR allele and one indel allele.

porcine PKHD1 [2] = test: Injection of in vivo produced porcine embryos, genotype of born piglets; parameters: species or system pig; conditions: 22 piglets, litters 115 and 116, condition C3
Protocol: Founder animals for ARPKD were produced using the process of Example 8 with minor changes. The T36M reagents (ssPKHD1 CRISPR 3.1 and template ssPKHD1 3.1 36 T to M) were injected into in vivo produced porcine embryos at the 1 or 2 cell stage. Condition C3 was used for injection and the 60 resulting embryos were split equally between to synchronized recipients. A total of 22 piglets were born, 14 from one surrogate (litter ID 115) and 8 from the other (litter ID 116). Newborn piglets were visually assessed for fitness and four, 115-1, 115-2, 115-3 and 115-8 were reluctant to suckle from their mothers and had visible abdominal distension (Table 14). […] Each of the remaining piglets was analyzed for a visible phenotype at 20 days of age (Table 14). Genotype of the piglet was a strong indicator of disease severity as 115-1, 115-2, 115-3 and 115-8 are predicted to have null mutations on each allele while mild cases had some combination of T36M mutation or single allele mutations (Table 14). Overall, ˜55% of offspring were mutant with 5 showing T36M mutations (Table 15). This rate is lower than observed above. A key difference is the embryos source. Parthenogenetic embryos were used in previous experiments where timing of activation is tightly controlled. In contrast, this experiment used in vivo produced embryos (bred sows, embryos collected ˜18 hours post fertilization) where timing is variable. However, the hypothesis that a variety of disease alleles and severities could be produced in a single litter was confirmed.

porcine PKHD1 [3] = test: Surveyor assay (cutting) and RFLP analysis (HDR) in transfected pig fibroblasts; type: cell-based; conditions: for activity among the TALENs and CRISPR gRNAs tested for the target: comparison of reagents developed for the same target; for cutting, In Fibroblast Cells Incubated at 30° / RFLP, In Fibroblast Cells Incubated at 30° / cutting, In Fibroblast Cells Incubated at 37° / RFLP, In Fibroblast Cells Incubated at 37°: pig fibroblasts; for cutting, In Fibroblast Cells Incubated at 30° / RFLP, In Fibroblast Cells Incubated at 30°: 30 degrees C; for cutting, In Fibroblast Cells Incubated at 30° / cutting, In Fibroblast Cells Incubated at 37°: three days recovery, Surveyor assay; for RFLP, In Fibroblast Cells Incubated at 30° / RFLP, In Fibroblast Cells Incubated at 37°: with HDR template, RFLP assay; for cutting, In Fibroblast Cells Incubated at 37° / RFLP, In Fibroblast Cells Incubated at 37°: 37 degrees C
Excerpt: FIG. 12A, FIG. 12B: T36M introgression in cells. […] The region is highly conserved and threonine acid at position 36 in humans corresponds to residue 36 in pigs. Threonine acid 36 is identified in pig genomic DNA sequence, and […] (maroon arrow) are designed to cleave near T36. FIG. 12A also discloses SEQ ID NO: 118. […] It should be noted that position 3553 in pigs is a Valine residue and not pathogenic; henceforth this mutation will be referred to as either I3553T or V3553T. The cells were recovered for three days at 30 and 37 degrees C. prior to quantification of activity by the Surveyor assay and RFLP analysis with the Nsp1 restriction enzyme. The arrowheads depict the expected size of cleavage products for the Surveyor assay or RFLP assay.
A number of quality sites for TALENs and CRISPRs are ideally positioned for HDR mediated introgression the T36M mutation (Table 7, Table 8, Table 9). The assembled reagents are tested in pig fetal fibroblasts and embryos using standard operating procedures (SOPs) (FIG. 9B). Using these methods, hundreds of loci in pig and cattle have been successfully targeted, with efficiencies ranging from 5-75% in cultured cells.
For introgression of T36M into the porcine genome, two CRISPR Cas9 gRNAs and TALENs were tested in pig fibroblasts and embryos to optimize conditions (FIG. 12A, FIG. 12B, Table 7, Table 8, Table 9).

[4] = C1 (100/50/50) ng/μl Cas9/gRNA/ssODN, T36M template
[5] = C2 (50/25/50) ng/μl Cas9/gRNA/ssODN, T36M template
[6] = C3 (25/12.5/50) ng/μl Cas9/gRNA/ssODN, T36M template

In the case of CC/C(=C(\c1ccccc1)c1ccc(OCCN(C)C)cc1)c1ccccc1 [tamoxifen], the “activation of the integrated PKD1^FLEX-CreER2 cassette” value (PKD1^FLEX-CreER2) is reported as greater than 80%.

“ssPKHD1 CRISPR 3.1: CRISPR guide RNA (SEQ ID NO: 103) targeting exon 3 of porcine PKHD1, used with Cas9 mRNA and T36M HDR template (guide GGATTACCGTGTTCTTCGATGG; chemistry not given here)” was tested, and the “Mutated n (%)” value (porcine PKHD1 [1]; [4]) was 17 (94.4%), the “NHEJ^− n (%)” value (porcine PKHD1 [1]; [4]) was 7 (38.8%) and the “HDR^+ n (%)” value (porcine PKHD1 [1]; [5]) was 11 (55.0%). For the same molecule, the “Mutated n (%)” value (porcine PKHD1 [1]; [5]) was 19 (95.0%), the “NHEJ^− n (%)” value (porcine PKHD1 [1]; [5]) was 8 (40.0%) and the “Mutated n (%)” value (porcine PKHD1 [1]; [6]) was 19 (95.0%). The “NHEJ^− n (%)” value (porcine PKHD1 [1]; [6]) was 3 (15.0%), the embryos mutated (porcine PKHD1 [1]; CRISPR/Cas9 dosage of 25-100 ng/μl) was “Up to 95%” and the “blastocyst formation rate (toxicity by embryo development analysis)” value (porcine PKHD1 [1]; cytoplasmic injection with HDR oligo at C1, C2, C3, highest in C3) was “high in each group”. For the same molecule, the “RFLP In Embryos” value (porcine PKHD1 [1]) was 80% RFLP, the “Heterozygous T36M % (number)” value (porcine PKHD1 [2]) was 9% (2/22) and the “Homozygous T36M % (number)” value (porcine PKHD1 [2]) was 13.6% (3/22). For the same molecule, the “Wild type % (number)” value (porcine PKHD1 [2]) was 45.5% (10/22), the “activity among the TALENs and CRISPR gRNAs tested for the target” value (porcine PKHD1 [3]) was “greatest activity in cells” and the “cutting, In Fibroblast Cells Incubated at 30°” value (shortened to “cutting … at 30°”) (porcine PKHD1 [3]) was 0% cutting. For the same molecule, the “RFLP, In Fibroblast Cells Incubated at 30°” value (“RFLP … at 30°” below) (porcine PKHD1 [3]) was “RFLP detected, too”, the “cutting, In Fibroblast Cells Incubated at 37°” value (shortened to “cutting … at 37°”) (porcine PKHD1 [3]) was 30.8% cutting and the “RFLP, In Fibroblast Cells Incubated at 37°” value (“RFLP … at 37°” below) (porcine PKHD1 [3]) was “RFLP 44.7%”. For the same molecule, the “RFLP … at 37°” value (porcine PKHD1 [3]; listed as CRISPR 3.1) was “up to 44.7%”.

“ssPKHD1 CRISPR 3.2: CRISPR guide RNA (SEQ ID NO: 104) targeting exon 3 of porcine PKHD1 (guide GCAGCCTCGCAGGGGGAACATGG; chemistry not given here)” was tested, and the “RFLP In Embryos” value (porcine PKHD1 [1]) was 0% RFLP, the “cutting … at 30°” value (porcine PKHD1 [3]) was 0% cutting at 30 and the “RFLP … at 30°” value (porcine PKHD1 [3]) was “RFLP detected, too”. For the same molecule, the “cutting … at 37°” value (porcine PKHD1 [3]) was 0% cutting at 37 and the “RFLP … at 37°” value (porcine PKHD1 [3]) was “RFLP detected, too”.

For “ssPKHD1 CRISPR 65.1: CRISPR guide RNA (SEQ ID NO: 105) for R3229Q (human R3240Q) introgression into porcine PKHD1 (guide GGGGTCGAGTTGGTATATTGTGG; chemistry not given here)”, the “NHEJ n (%)” value (porcine PKHD1 [1]; C1 (100/50/50) ng/μl) was 2 (10.5%), the “NHEJ n (%)” value (porcine PKHD1 [1]; C3 (25/12.5/50) ng/μl) was 4 (15.0%) and the “RFLP In Embryos” value (porcine PKHD1 [1]) was 89%. The “activity among the TALENs and CRISPR gRNAs tested for the target” value (porcine PKHD1 [3]) was “greatest activity”, the “cutting … at 30°” value (porcine PKHD1 [3]) was “Cutting detected, too” and the “RFLP … at 30°” value (porcine PKHD1 [3]) was 7.3% RFLP. For the same molecule, the “cutting … at 37°” value (porcine PKHD1 [3]) was “Cutting detected, too” and the “RFLP … at 37°” value (porcine PKHD1 [3]) was 11% RFLP.
